Data reported in patent publication US11419829B2, “Use of cannabidiol in combination with 5-HT2B receptor agonists or amphetamines in the treatment of epilepsy” (GW Research Limited, priority 2017, dated 2022).
Structures can show the parent of a compound that is named as a salt.

Experiments:
[1] = target: T1, human recombinant 5-HT2C receptor (Homo sapiens, UniProt P28335); test: Inhibition of specific binding at human recombinant 5-HT2C receptors (FIG. 2B)
T1 sequence (P28335 33-458): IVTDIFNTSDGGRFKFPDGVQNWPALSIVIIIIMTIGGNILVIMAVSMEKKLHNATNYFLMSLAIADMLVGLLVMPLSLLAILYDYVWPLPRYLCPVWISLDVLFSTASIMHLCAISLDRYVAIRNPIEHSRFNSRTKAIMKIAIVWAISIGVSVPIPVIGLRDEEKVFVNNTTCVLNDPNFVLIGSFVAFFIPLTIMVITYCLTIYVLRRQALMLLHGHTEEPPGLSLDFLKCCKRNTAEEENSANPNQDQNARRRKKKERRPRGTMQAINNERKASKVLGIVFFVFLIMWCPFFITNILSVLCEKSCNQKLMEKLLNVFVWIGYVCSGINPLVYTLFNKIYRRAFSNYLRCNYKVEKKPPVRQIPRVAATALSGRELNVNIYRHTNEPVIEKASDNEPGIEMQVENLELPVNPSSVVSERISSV

[2] = Plasma concentrations in human clinical trials in epilepsy; assay type: in vivo
[3] = target: T2, human 5-HT2B receptor (Homo sapiens, UniProt P41595); test: 5-HT2B agonist effect, IP1 production (HTRF) in transfected CHO cells; assay type: cell-based; settings: IP1 production vs 1 μM 5-HT control
T2 construct: expressed in transfected cells; host or cells: CHO cells
T2 sequence (P41595 whole entry): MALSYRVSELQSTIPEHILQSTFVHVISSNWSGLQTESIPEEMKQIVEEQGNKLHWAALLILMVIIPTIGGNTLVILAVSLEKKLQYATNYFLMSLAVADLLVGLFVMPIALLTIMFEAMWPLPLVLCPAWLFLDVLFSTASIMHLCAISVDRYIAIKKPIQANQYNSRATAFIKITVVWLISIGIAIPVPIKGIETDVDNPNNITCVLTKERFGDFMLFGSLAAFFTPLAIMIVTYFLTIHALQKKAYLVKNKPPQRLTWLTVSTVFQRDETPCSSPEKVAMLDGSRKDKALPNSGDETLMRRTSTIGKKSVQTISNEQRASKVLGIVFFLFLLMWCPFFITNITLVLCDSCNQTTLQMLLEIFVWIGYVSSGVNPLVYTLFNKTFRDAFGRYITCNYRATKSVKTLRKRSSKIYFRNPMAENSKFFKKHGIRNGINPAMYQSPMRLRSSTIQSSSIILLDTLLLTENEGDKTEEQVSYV
Description: (§1) Evaluation of the activity of CBD and 7-OH-CBD at the human 5-HT2B receptor was undertaken in transfected CHO cells. Such activity as either an agonist or antagonist was determined by measuring their effects IP1 production using the HTRF detection method.
(§2) Cells were suspended in a buffer containing 10 mM Hepes/NaOH (pH 7.4), 4.2 mM KCl, 146 mM NaCl, 1 mM CaCl2), 0.5 mM MgCl2, 5.5 mM glucose and 50 mM LiCl, then distributed in microplates at a density of 4.104 cells/well and incubated for 30 min at 37° C. in the presence of buffer (basal control), test compound or reference agonist.
For stimulated control measurement, separate assay wells contain 1 μM 5-HT. Following incubation, the cells are lysed and the fluorescence acceptor (D2-labeled IP1) and fluorescence donor (anti-IP1 antibody labelled with europium cryptate) are added.
After 60 min at room temperature, the fluorescence transfer is measured at A ex=337 nm and A em=620 and 665 nm using a microplate reader (Rubystar, BMG).
(§3) The IP1 concentration is determined by dividing the signal measured at 665 nm by that measured at 620 nm (ratio).
The results are expressed as a percent of the control response to 1 μM 5-HT. The standard reference agonist is 5-HT, which is tested in each experiment at several concentrations to generate a concentration-response curve from which its EC50 value is calculated.

[4] = tested on: MES-induced tonic seizures; test: Maximal electroshock seizure (MES) test in mice with isobolographic/CalcuSyn DDI analysis; assay type: in vivo, mouse; settings: for Dose Reduction Index (DRI): in CBD/FEN combination vs drug alone; for doses with statistically significant (p<0.05) anticonvulsant effect vs vehicle: Experiment A, single drug; for doses with statistically significant (p<0.05) anticonvulsant effect vs vehicle / effect on incidence of MES vs vehicle, drug alone: i.p.; for doses with statistically significant (p<0.05) anticonvulsant effect vs vehicle / ED50: mouse MES; for effect on incidence of MES vs vehicle, drug alone: Experiment B, low doses alone; for ED50: median-effect curves, drug alone, read-out: potency (Dm or ED50)
Description: The study was performed in two phases. […] Secondly, (Experiment B), drug-drug interactions (DDI) and anticonvulsant activities for CBD/FEN in combination were determined.
Experiment A was performed using 160 male, C57Bl6 mice, weighing between 20.1-30.1 g, and Experiment B was performed using 126 male, C57Bl6 mice, weighing between 19.2-26.1 g, purchased from a licensed breeder (Charles River, UK).
The following drugs were used in this study: Purified botanical CBD provided by GW Research Ltd., fenfluramine hydrochloride (FEN) purchased from Sigma Merck. The control vehicle used was 1:1:18 (5% ethanol, 5% Kolliphor EL, 90% saline). CBD and FEN were dissolved in the same control vehicle for comparison.
Animals were dosed (10 ml/kg) i.p. at 60 min for CBD and 30 min for FENS pre-treatment times, prior to MES and before plasma and brain sampling immediately post-MES test.
Here, doses were selected based on known ED50 and NOAELs for all the drugs and were: CBD-BOT [10, 30, 50, 70 and 100 mg/kg] and FEN [1, 2, 3, 5 and 10 mg/kg]. The number of animals in each of these groups were 10 (n=10), and 160 in total.
For Experiment B, in addition to the vehicle group, three dose groups were used for each of the treatments. Here, doses were selected based on analysis of the data obtained from Experiment A according to methods described for determination of isobolographic interactions. Doses as CBD/FEN combination were [20.9/2.5, 13.6/3.9 and 28.3/1.2 mg/kg]. The number of animals in each of these groups were 10 (n=10), and with individual CBD, FEN and VPA doses n=190 in total.
Electroconvulsions were produced by application of a fixed current intensity of 30 mA (0.2 sec duration) delivered via corneal electrodes. […] Mice were individually assessed for production of seizure determined by presence or absence of tonic hindlimb extension following current application.
Data were collected by an observer unaware of the treatment received by each animal.
The protective activities of CBD and FEN administered alone were evaluated and expressed as effective doses (ED50; mg/kg based on dose administered) and effective exposures (EE50; μM based on bioanalysis of brain samples) where EX50 is defined as the dose or brain exposure required to protect 50% of mice from MES-induced tonic seizures. CBD/FEN combinations were evaluated at 3 fixed ratios (1:3, 1:1 and 3:1) based on an EE50 derived from an assumption of linearly additive effects of EEs of the two drugs in combination.
For the three fixed-ratio CBD/FEN combinations (1:3, 1:1 and 3:1), calculations were based on Loewe's equation of additivity as follows; x/EE50(CBD)+y/EE50(FEN)=1; where x=the exposure of CBD and y=the exposure at which […], when co-administered with FEN, should theoretically exert the desired/additive 50% effect. Subsequently, CBD and FEN doses corresponding to 50% of respective EE50 were used for the CBD/FEN 1:1 ratio. Similarly, dose proportions were calculated for the CBD/FEN 1:3 and 3:1 ratios based on theoretical additive EE50.
The percentage protection of animals against MES-induced seizure were plotted against doses of AED alone (CBD or FEN) from Experiment A as log-probit linear regression analysis to derive ED50 and EE50.
Loewe's equation of additivity was used to determine fractions of EE50 in the three ratios 1:3, 1:1 and 3:1 for each of the combinations CBD/FEN. Graphs were plotted in Prism, for CBD and FEN to determine relationships versus these exposures to determine actual doses for the combination study (Experiment B).
DDI using these three-fixed dose-ratios of CBD/FEN was assessed using CalcuSyn v2.11 (Biosoft).

[5] = target: T2, human 5-HT2B receptor; test: 5-HT2B antagonist effect, IP1 production (HTRF) in transfected CHO cells; assay type: cell-based; settings: antagonism of 30 nM 5-HT
Description: as §1
as §2, with “preincubated” for “incubated”, “5” for “30”, “room temperature” for “37° C.”, “antagonist.” for “agonist.”
Thereafter, the reference agonist 5-HT is added at a final concentration of 30 nM. […] Following 30 min incubation at 37° C., the cells are lysed and the fluorescence acceptor (D2-labeled IP1) and fluorescence donor (anti-IP1 antibody labelled with europium cryptate) are added.
After 60 min at room temperature, the fluorescence transfer is measured at ex=337 nm and λ em=620 and λ 665 nm using a microplate reader (Rubystar, BMG).
as §3
The results are expressed as a percent inhibition of the control response to 30 nM 5-HT. […]

[6] = tested on: seizure frequency in patients with Dravet syndrome; settings: low dose between 0.25 and 1.0 mg/kg/day; cited from earlier work

| Compound | interaction with the 5-HT2C receptor [1] | plasma concentration reached ([2]; human clinical trials in epilepsy, plasma) | molar plasma concentration ([2]; human clinical use of CBD, plasma) | agonist activity at 5-HT2B receptors [3] | Drug alone dose for the given effect ([4]; Effect 40%) | Dose Reduction Index (DRI) ([4]; Effect 40%) | Drug alone dose for the given effect ([4]; Effect 80%) | Dose Reduction Index (DRI) ([4]; Effect 80%) | Drug alone dose for the given effect ([4]; Effect 90%) | Dose Reduction Index (DRI) ([4]; Effect 90%) | doses with statistically significant (p<0.05) anticonvulsant effect vs vehicle [4] | effect on incidence of MES vs vehicle, drug alone [4] | ED50 [4] | Kb [5] | effect on seizure frequency [6] | 7-OH-CBD concentration relative to that achieved by CBD ([2]; clinical use of CBD) |
| --- | --- | --- | --- | --- | --- | --- | --- | --- | --- | --- | --- | --- | --- | --- | --- | --- |
| C=C(C)[C@@H]1CCC(C)=C[C@H]1c1c(O)cc(CCCCC)cc1O [CBD, cannabidiol] | does not act upon the 5-HT2C receptors | up to 330 ng/mL | ~1 µM | Neither CBD nor 7-OH-CBD possess agonist activity | 28.46 mg/kg | 1.006 fold | 56.55 mg/kg | 2.704 fold | 77.15 mg/kg | 5.690 fold | 50 to 100 mg/kg | no significant effect | 33.2 mg/kg | 3700 nM | – | – |
| CCNC(C)Cc1cccc(C(F)(F)F)c1 (stereo not drawn) [FEN, fenfluramine hydrochloride, reference compound] | – | – | – | – | 4.19 mg/kg | 3.639 fold | 8.26 mg/kg | 3.306 fold | 11.24 mg/kg | 2.921 fold | 10 mg/kg | no significant effect | 4.9 mg/kg | – | reduce seizure frequency | – |
| C=C(C)[C@@H]1CCC(CO)=C[C@H]1c1c(O)cc(CCCCC)cc1O [7-OH-CBD, 7-hydroxy cannabidiol] | – | – | – | Neither CBD nor 7-OH-CBD possess agonist activity | – | – | – | – | – | – | – | – | – | 690 nM | – | ~50% |
